Reference: ChEMBL document CHEMBL4507316 (2021)

Key:
[1] = target: Activin receptor type-1 (Homo sapiens) (UniProt Q04771); experiment: ACV-R1 ProQinase selectivity panel; conditions: Compound concentration 1.0 uM
[2] = target: Calcium/calmodulin-dependent protein kinase type II subunit beta (Homo sapiens) (UniProt Q13554); experiment: CAMK2B ProQinase selectivity panel; conditions: Compound concentration 1.0 uM
[3] = target: CDK6/cyclin D1 (Homo sapiens) (UniProt P24385+Q00534); experiment: CDK6/CycD1 ProQinase selectivity panel; type: protein-complex assay; conditions: Compound concentration 1.0 uM
[4] = target: Serine/threonine-protein kinase DCLK2 (Homo sapiens) (UniProt Q8N568); experiment: DCAMKL2 ProQinase selectivity panel; conditions: Compound concentration 1.0 uM
[5] = tested on: Epidermal growth factor receptor (Homo sapiens), P00533 [UNDEFINED MUTATION]; experiment: EGF-R d746-750 ProQinase selectivity panel; conditions: Compound concentration 1.0 uM
[6] = tested on: Epidermal growth factor receptor (Homo sapiens), P00533 [L858R]; experiment: EGF-R L858R ProQinase selectivity panel; conditions: Compound concentration 1.0 uM
[7] = target: Epidermal growth factor receptor (Homo sapiens) (UniProt P00533); experiment: EGF-R wt ProQinase selectivity panel; conditions: Compound concentration 1.0 uM
[8] = target: Interferon-induced, double-stranded RNA-activated protein kinase (Homo sapiens) (UniProt P19525); experiment: EIF2AK2 ProQinase selectivity panel; conditions: Compound concentration 1.0 uM
[9] = target: Tyrosine-protein kinase Fes/Fps (Homo sapiens) (UniProt P07332); experiment: FES ProQinase selectivity panel; conditions: Compound concentration 1.0 uM
[10] = target: Leukocyte tyrosine kinase receptor (Homo sapiens) (UniProt P29376); experiment: LTK ProQinase selectivity panel; conditions: Compound concentration 1.0 uM
[11] = target: MAP/microtubule affinity-regulating kinase 3 (Homo sapiens) (UniProt P27448); experiment: MARK3 ProQinase selectivity panel; conditions: Compound concentration 1.0 uM
[12] = target: Serine/threonine-protein kinase NLK (Homo sapiens) (UniProt Q9UBE8); experiment: NLK ProQinase selectivity panel; conditions: Compound concentration 1.0 uM
[13] = target: Phosphorylase b kinase gamma catalytic chain, skeletal muscle/heart isoform (Homo sapiens) (UniProt Q16816); experiment: PHKG1 ProQinase selectivity panel; conditions: Compound concentration 1.0 uM
[14] = target: Serine/threonine-protein kinase 33 (Homo sapiens) (UniProt Q9BYT3); experiment: STK33 ProQinase selectivity panel; conditions: Compound concentration 1.0 uM
[15] = target: Testis-specific serine/threonine-protein kinase 1 (Homo sapiens) (UniProt Q9BXA7); experiment: TSSK1 ProQinase selectivity panel; conditions: Compound concentration 1.0 uM
[16] = target: Alpha-1A adrenergic receptor (Homo sapiens) (UniProt P35348); conditions: Compound concentration 10.0 uM
[17] = target: Muscarinic acetylcholine receptor M5 (Homo sapiens) (UniProt P08912); conditions: Compound concentration 10.0 uM

Chain of Tyrosine-protein kinase Fes/Fps (Homo sapiens) (P07332 whole entry): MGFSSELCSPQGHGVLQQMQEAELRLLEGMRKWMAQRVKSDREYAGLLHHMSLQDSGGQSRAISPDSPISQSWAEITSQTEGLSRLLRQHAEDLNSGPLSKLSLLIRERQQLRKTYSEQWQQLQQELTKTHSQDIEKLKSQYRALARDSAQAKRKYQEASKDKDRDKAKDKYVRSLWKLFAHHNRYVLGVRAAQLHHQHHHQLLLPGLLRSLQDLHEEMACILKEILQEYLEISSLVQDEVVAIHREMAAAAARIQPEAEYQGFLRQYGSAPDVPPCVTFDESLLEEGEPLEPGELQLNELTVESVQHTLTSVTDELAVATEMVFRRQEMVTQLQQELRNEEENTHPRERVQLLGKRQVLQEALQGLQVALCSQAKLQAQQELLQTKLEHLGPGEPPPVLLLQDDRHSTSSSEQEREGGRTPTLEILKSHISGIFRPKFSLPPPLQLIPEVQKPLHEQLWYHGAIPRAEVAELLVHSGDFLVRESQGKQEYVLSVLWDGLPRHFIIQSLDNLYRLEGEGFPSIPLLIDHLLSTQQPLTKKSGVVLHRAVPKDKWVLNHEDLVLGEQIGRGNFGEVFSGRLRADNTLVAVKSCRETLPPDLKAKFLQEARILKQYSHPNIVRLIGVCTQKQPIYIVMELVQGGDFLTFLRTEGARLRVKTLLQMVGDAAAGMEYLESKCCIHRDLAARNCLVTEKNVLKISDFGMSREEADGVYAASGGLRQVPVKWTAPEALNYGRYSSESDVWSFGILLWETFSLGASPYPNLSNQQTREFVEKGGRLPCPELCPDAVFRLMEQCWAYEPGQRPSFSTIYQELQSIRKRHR
Chain of MAP/microtubule affinity-regulating kinase 3 (Homo sapiens) (P27448 whole entry, looked up): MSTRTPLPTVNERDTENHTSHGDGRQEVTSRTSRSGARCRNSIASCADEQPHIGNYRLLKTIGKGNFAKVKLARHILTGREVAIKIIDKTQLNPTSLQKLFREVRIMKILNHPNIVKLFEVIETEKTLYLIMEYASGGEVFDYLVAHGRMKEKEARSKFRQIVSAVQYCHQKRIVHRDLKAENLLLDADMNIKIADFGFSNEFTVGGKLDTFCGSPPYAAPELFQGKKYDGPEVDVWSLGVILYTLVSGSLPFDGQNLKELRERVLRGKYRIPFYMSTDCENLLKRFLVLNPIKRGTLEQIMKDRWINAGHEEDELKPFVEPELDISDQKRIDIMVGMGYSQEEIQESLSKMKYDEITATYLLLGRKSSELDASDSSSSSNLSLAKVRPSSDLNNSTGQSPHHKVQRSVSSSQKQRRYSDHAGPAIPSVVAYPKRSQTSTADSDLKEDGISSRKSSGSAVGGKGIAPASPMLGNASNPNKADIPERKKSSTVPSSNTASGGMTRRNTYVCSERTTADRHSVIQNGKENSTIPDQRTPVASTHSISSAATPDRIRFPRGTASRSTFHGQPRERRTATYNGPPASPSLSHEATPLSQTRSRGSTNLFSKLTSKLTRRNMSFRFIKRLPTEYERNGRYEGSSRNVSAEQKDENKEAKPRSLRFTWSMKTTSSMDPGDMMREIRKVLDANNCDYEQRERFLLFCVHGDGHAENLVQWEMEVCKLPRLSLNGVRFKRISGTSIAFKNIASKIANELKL
Chain of Alpha-1A adrenergic receptor (Homo sapiens) (P35348 whole entry): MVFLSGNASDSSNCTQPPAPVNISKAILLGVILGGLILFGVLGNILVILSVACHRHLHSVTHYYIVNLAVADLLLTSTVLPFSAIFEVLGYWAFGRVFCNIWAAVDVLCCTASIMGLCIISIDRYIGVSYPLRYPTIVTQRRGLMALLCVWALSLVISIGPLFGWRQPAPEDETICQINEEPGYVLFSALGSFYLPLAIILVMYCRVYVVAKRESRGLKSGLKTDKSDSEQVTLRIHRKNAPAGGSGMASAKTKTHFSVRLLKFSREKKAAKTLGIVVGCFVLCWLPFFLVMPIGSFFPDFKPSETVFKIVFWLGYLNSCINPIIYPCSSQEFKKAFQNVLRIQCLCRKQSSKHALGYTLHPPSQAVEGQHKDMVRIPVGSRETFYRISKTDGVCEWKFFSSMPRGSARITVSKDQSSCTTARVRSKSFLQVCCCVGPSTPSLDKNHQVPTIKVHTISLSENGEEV
Chain of Serine/threonine-protein kinase DCLK2 (Homo sapiens) (Q8N568 whole entry): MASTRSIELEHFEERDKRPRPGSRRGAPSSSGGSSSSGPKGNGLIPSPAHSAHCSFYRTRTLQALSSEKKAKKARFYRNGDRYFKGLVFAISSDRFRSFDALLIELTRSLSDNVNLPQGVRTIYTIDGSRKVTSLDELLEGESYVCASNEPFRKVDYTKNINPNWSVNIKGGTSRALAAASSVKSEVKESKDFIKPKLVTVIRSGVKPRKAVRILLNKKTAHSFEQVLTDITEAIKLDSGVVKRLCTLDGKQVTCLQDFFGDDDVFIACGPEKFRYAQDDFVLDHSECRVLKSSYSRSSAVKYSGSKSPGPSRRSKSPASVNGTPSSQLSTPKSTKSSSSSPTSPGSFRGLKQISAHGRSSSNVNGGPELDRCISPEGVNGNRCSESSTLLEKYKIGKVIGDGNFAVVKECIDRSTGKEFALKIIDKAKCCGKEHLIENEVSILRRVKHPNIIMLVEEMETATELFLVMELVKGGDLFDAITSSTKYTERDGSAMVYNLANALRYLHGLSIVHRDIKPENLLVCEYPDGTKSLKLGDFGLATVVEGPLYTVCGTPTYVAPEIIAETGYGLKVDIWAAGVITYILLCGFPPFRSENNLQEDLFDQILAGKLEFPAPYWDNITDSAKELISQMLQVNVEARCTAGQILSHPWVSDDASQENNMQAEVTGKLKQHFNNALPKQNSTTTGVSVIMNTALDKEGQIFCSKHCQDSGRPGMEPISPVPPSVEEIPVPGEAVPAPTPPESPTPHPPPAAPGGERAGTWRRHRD
Chain of Serine/threonine-protein kinase NLK (Homo sapiens) (Q9UBE8 whole entry, canonical isoform): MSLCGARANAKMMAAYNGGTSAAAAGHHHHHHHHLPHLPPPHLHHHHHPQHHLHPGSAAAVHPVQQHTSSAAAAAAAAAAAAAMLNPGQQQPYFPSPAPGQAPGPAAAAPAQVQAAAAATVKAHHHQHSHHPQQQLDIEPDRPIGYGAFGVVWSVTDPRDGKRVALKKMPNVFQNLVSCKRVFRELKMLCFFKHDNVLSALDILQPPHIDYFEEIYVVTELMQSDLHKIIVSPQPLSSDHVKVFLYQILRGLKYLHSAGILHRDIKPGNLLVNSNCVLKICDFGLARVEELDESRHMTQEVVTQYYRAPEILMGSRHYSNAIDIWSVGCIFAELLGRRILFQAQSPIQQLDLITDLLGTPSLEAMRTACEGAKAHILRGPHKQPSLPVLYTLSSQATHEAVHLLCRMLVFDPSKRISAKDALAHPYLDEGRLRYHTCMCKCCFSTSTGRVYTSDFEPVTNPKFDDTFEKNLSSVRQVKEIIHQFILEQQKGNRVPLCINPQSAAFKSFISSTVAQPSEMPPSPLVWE
Chain of Testis-specific serine/threonine-protein kinase 1 (Homo sapiens) (Q9BXA7 whole entry): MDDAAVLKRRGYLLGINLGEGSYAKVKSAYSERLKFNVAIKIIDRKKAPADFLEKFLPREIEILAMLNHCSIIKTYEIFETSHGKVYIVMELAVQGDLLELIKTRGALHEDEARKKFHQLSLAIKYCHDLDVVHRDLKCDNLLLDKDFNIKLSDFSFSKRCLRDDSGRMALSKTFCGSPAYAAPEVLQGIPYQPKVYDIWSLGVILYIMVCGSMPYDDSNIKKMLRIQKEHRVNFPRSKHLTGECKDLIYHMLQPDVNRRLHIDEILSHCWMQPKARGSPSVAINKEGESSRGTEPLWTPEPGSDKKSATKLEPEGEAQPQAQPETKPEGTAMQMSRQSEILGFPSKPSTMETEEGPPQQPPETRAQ
Chain of Epidermal growth factor receptor (Homo sapiens), P00533 [L858R] (P00533 whole entry L858R): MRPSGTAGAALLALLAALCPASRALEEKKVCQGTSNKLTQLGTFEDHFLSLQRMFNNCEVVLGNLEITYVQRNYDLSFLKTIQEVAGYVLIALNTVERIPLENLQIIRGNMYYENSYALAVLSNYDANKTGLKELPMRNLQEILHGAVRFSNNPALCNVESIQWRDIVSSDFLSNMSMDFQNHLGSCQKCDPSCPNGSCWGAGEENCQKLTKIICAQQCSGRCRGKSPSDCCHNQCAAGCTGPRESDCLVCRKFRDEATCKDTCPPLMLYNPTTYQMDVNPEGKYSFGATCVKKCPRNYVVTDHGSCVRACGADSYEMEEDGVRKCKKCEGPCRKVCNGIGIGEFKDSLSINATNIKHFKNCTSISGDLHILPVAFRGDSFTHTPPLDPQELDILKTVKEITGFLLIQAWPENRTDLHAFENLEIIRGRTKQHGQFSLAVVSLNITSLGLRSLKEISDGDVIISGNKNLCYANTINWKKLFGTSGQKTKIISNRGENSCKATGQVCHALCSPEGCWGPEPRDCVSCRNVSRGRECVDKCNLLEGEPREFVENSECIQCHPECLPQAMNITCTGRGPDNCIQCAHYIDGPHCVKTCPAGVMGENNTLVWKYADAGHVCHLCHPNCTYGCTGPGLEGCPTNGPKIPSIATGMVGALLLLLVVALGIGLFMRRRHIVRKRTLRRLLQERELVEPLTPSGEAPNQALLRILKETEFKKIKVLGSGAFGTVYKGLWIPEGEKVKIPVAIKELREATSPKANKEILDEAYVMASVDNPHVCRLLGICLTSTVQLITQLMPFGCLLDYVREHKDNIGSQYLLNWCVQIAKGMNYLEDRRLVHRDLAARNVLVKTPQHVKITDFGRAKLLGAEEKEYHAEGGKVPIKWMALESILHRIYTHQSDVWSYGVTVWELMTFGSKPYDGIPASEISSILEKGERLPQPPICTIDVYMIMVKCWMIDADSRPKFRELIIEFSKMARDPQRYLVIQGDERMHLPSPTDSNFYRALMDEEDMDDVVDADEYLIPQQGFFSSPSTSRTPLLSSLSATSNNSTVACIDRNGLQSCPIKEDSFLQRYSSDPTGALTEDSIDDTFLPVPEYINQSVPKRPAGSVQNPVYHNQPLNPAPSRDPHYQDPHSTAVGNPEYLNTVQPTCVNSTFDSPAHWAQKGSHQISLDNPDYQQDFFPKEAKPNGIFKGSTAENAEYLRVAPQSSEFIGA

O=C1c2ccc(Nc3ccc(F)cc3F)cc2CCc2ccc(OC[C@H](O)CO)cc21 [Skepinone-L]
inactive: % Residual activity with Skepinone-L [1] 94% | % Residual activity with Skepinone-L [2] 86% | % Residual activity with Skepinone-L [3] 88% | % Residual activity with Skepinone-L [4] 83% | % Residual activity with Skepinone-L [5] 100% | % Residual activity with Skepinone-L [6] 89% | % Residual activity with Skepinone-L [7] 94% | % Residual activity with Skepinone-L [8] 86% | % Residual activity with Skepinone-L [9] 121% | % Residual activity with Skepinone-L [10] 97% | % Residual activity with Skepinone-L [11] 95% | % Residual activity with Skepinone-L [12] 87% | % Residual activity with Skepinone-L [13] 93% | % Residual activity with Skepinone-L [14] 94% | % Residual activity with Skepinone-L [15] 90% | inhibition [16] 21.8% | inhibition [17] -9.46%
